Calls of active or inactive are those of the source. The rule behind the calls is not given here.
Experiments:
SH-SY5Y [1] = assay: Cytoprotective activity against glutamic acid induced injury in human SH-SY5Y cells assessed as increase in cell viability at 10 to 20 uM by MTT assay; assay type: functional, cell-based; settings: dose 10-20 µM
SH-SY5Y [2] = assay: Induction of apoptosis in glutamic acid induced human SH-SY5Y cells assessed as necrotic cells incubated for 24 hrs by Annexin V-FITC/PI staining based flow cytometry analysis (reference value: 3.64%); assay type: functional
SH-SY5Y [3] = assay: Induction of apoptosis in glutamic acid induced human SH-SY5Y cells assessed as late apoptotic cells incubated for 24 hrs by Annexin V-FITC/PI staining based flow cytometry analysis (reference value: 0.21%); assay type: functional
SH-SY5Y [4] = assay: Cytoprotective activity against glutamic acid induced injury in human SH-SY5Y cells assessed as decrease in ROS level at 10 uM by DCFH-DA staining based flow cytometry; assay type: functional, cell-based
SH-SY5Y [5] = assay: Induction of apoptosis in human SH-SY5Y cells assessed as early apoptotic cells incubated for 24 hrs by Annexin V-FITC/PI staining based based flow cytometry analysis (reference value: 0.03%); assay type: toxicity, cell-based
SH-SY5Y [6] = assay: Induction of apoptosis in glutamic acid induced human SH-SY5Y cells assessed as early apoptotic cells incubated for 24 hrs by Annexin V-FITC/PI staining based flow cytometry analysis (reference value: 34.60%); assay type: functional
SH-SY5Y [7] = assay: Induction of apoptosis in glutamic acid induced human SH-SY5Y cells assessed as viable cells incubated for 24 hrs by Annexin V-FITC/PI staining based flow cytometry analysis (reference value: 61.55%); assay type: functional
SH-SY5Y [8] = assay: Cytoprotective activity against glutamic acid induced injury in human SH-SY5Y cells assessed as improvement in cell morphology at 10 uM by immunofluorescence analysis; assay type: functional, cell-based
SH-SY5Y [9] = assay: Induction of apoptosis in human SH-SY5Y cells assessed as late apoptotic cells incubated for 24 hrs by Annexin V-FITC/PI staining based flow cytometry analysis (reference value: 0.04%); assay type: toxicity, cell-based
[10] = Induction of apoptosis in human SH-SY5Y cells assessed as viable cells incubated for 24 hrs by Annexin V-FITC/PI staining based flow cytometry analysis (reference value: 99.87%); assay type: toxicity, cell-based; settings: read-out: Activity
SH-SY5Y [11] = assay: Induction of apoptosis in human SH-SY5Y cells assessed as necrotic cells incubated for 24 hrs by Annexin V-FITC/PI staining based flow cytometry analysis (reference value: 0.06%); assay type: toxicity, cell-based

COc1ccc(OC2=C(C)C(=O)[C@@H]3[C@H](C2=O)[C@H]2C[C@@H]3C([C@@H]3[C@H](CCC(C)=O)C3(C)C)=C2C)cc1C
Activity (SH-SY5Y [1]): Active

COc1ccc(OC2=C(C)C(=O)[C@H]3[C@@H](C2=O)[C@@H]2C[C@@]3(C)C([C@@H]3[C@H](CCC(C)=O)C3(C)C)=C2C)cc1C
Activity (SH-SY5Y [1]): Active

COc1ccc(OC2=C(C)C(=O)[C@H]3[C@@H](C2=O)[C@@H]2C[C@H]3C(C)=C2[C@@H]2[C@H](CCC(C)=O)C2(C)C)cc1C
Activity (SH-SY5Y [1]): Active

COc1ccc(OC2=C(C)C(=O)[C@H]3[C@@H](C2=O)[C@@H]2C[C@H]3C([C@@H]3[C@H](CCC(C)=O)C3(C)C)=C2C)cc1C
Activity (SH-SY5Y [1]): Active

COc1ccc(OC2=C[C@@H]3C(=O)[C@](C)(C2=O)[C@@]2(C)C([C@@H]4[C@H](CCC(C)=O)C4(C)C)=CC[C@@H]32)cc1C
Activity (SH-SY5Y [1]): Active

COc1ccc(OC2=C(C)C(=O)[C@@H]3[C@H](C2=O)[C@H]2C[C@@H]3C(C)=C2[C@@H]2[C@H](CCC(C)=O)C2(C)C)cc1C
Activity (SH-SY5Y [2]): 4.49% | Activity (SH-SY5Y [3]): 0.17% | Activity (SH-SY5Y [1]): Active | Activity (SH-SY5Y [4]): Active | Activity (SH-SY5Y [5]): 0.39% | Activity (SH-SY5Y [6]): 14.23% | Activity (SH-SY5Y [7]): 81.11% | Activity (SH-SY5Y [8]): Active | Activity (SH-SY5Y [9]): 0.08% | viability at 24 h [10]: 96% | Activity (SH-SY5Y [11]): 3.59%

— ChEMBL document CHEMBL5357002, “Heterodimers of Aromadendrane Sesquiterpenoid with Benzoquinone from the Chinese Liverwort Mylia nuda” (J Nat Prod, 2024)
